# Source: US7247317B2, “Compositions comprising phenylaminothiophenacetic acid derivatives for the treatment of acute or adult respiratory distress syndrome (ARDS) and infant respiratory distress syndrome (IRDS)” (Altana Pharma AG, priority 1998, dated 2007)
# System: Sprague Dawley rats
# Assay: Lung lavage model of ARDS in ventilated rats: arterial oxygen partial pressure (PaO2)
# Assay type: in vivo, rat
# Conditions: for PaO2: 120 min, mean ± SD
# From the text: Anesthetized Sprague Dawley rats are artificially ventilated with pure oxygen and a positive endexiratory pressure (PEEP; in order to ensure oxygenation of the rats) and lavaged until their endogenous lung surfactant is washed out [D. Häfner, R. Beume, U. Kilian, G. Kraznai and Burkhard Lachmann: Dose-response comparison of five lung surfactant (LSF) preparations in an animal model of adult respiratory distress syndrome (ARDS); D. Häfner, P.-G. Germann, D. Hauschke, Pulmonary Pharmacology (1994) 7, 319-332]. This is manifested by the fact that in the animals the preliminary values of the arterial oxygen partial pressure (PaO2) of 500-550 mmHg (in the case of pure oxygen ventilation and PEEP) decrease to values of 50-110 mmHg. Animals of the control group which are not treated with lung surfactant remain with their PaO2 at these low values throughout the observation period. 60 minutes after the PaO2 has decreased to these values, lung surfactant or lung surfactant together with 4-(2,6-dichloroanilino)-3-thiopheneacetic acid is instilled intratracheally. The blood gases are determined 30, 60, 90 and 120 minutes after instillation.
# In Table 1 below, in line A the average values (± standard deviation) of the PaO2 are indicated in mmHg for the time 120 minutes (constant PEEP of 8 cm H2O) after intratracheal instillation of lung surfactant 1 h after the last lavage. The table contains data about the values after a sole i.v. administration of 4-(2,6-dichloroanilino)-3-thiopheneacetic acid (Eltenac) in comparison to untreated controls. It can be seen from the table that the sole administration of Eltenac has no influence on the PaO2. This follows by comparison with the untreated control animals. The administration of lung surfactant (25 or 100 mg/kg) leads to a rise in the PaO2. […] In Table 2, in line A the PaO2 values after joint intratracheal (i.tr.) administration of lung surfactant together with Eltenac are indicated in increasing dosages. […]
smiles,measurement,setting,value
"O=C(O)Cc1cscc1Nc1c(Cl)cccc1Cl [Eltenac, 4-(2,6-dichloroanilino)-3-thiopheneacetic acid]",PaO2,Eltenac i.tr. 3.0 mg/kg alone after last lavage,92 ± 69 mmHg
same,PaO2,"Eltenac i.v. 22.1 mg/kg alone, directly after lavage, PEEP 8 cm H2O",82 ± 35 mmHg
same,influence on the PaO2 (in words),sole administration of Eltenac vs untreated control animals,no influence
